# Data taken from patent US6015814A, “Quinazoline derivative” (Zeneca Limited, priority 1995, dated 2000).
# How the values were obtained:
# [1] = test system: human mammary carcinoma which expresses EGF receptor tyrosine kinase; conditions: athymic nude mice; cited from earlier work
# [2] = test system: another carcinoma which does not express EGF receptor tyrosine kinase; conditions: cited from earlier work
# [3] = target: T1, EGF receptor tyrosine kinase (Homo sapiens, UniProt P00533); experiment: in vitro assay, inhibition of EGF receptor tyrosine kinase (test (a)); type: biochemical, human (A-431 cells, derived from human vulval carcinoma); conditions: approximately
# T1 construct: Receptor tyrosine kinase was obtained in partially purified form from A-431 cells; endogenous in cells; host or cells: A-431 cells (human vulval carcinoma)
# Description: (a) An in vitro assay which determines the ability of a test compound to inhibit the enzyme EGF receptor tyrosine kinase. Receptor tyrosine kinase was obtained in partially purified form from A-431 cells (derived from human vulval carcinoma) by the procedures described below which are related to those described by Carpenter et al., J. Biol. Chem., 1979. 254, 4884, Cohen et al., J. Biol. Chem., 1982, 257, 1523 and by Braun et al., J. Biol. Chem., 1984, 259, 2051.
# A-431 cells were grown to confluence using Dulbecco's modified Eagle's medium (DMEM) containing 5% fetal calf serum (FCS). The obtained cells were homogenised in a hypotonic borate/EDTA buffer at pH 10.1. The homogenate was centrifuged at 400 g for 10 minutes at 0-4° C. The supernatant was centrifuged at 25,000 g for 30 minutes at 0-4° C. […]
# The test compound/EGF mixture solution (5 μl) was added to the test enzyme solution (10 μl) and the mixture was incubated at 0-4° C. for 30 minutes. […] Radioactivity present in the filter paper was measured using a liquid scintillation counter (Sequence A). […]
# Receptor tyrosine kinase inhibition was calculated as follows: [formula]
# The extent of inhibition was then determined at a range of concentrations of test compound to give an IC50 value.
# [4] = test system: human naso-pharyngeal cancer cell line KB; experiment: in vitro assay, inhibition of EGF-stimulated growth of the human naso-pharyngeal cancer cell line KB (test (b)); type: cell-based; conditions: 72 h, KB cells, 3 days, approximately
# Description: (b) An in vitro assay which determines the ability of a test compound to inhibit the EGF-stimulated growth of the human naso-pharyngeal cancer cell line KB.
# KB cells were seeded into wells at a density of 1×10^4 -1.5×10^4 cells per well and grown for 24 hours in DMEM supplemented with 5% FCS (charcoal-stripped). Cell growth was determined after incubation for 3 days by the extent of metabolism of MTT tetrazolium dye to furnish a bluish colour. Cell growth was then determined in the presence of EGF (10 ng/ml) or in the presence of EGF (10 ng/ml) and a test compound at a range of concentrations. An ICSO value could then be calculated.
# [5] = test system: human vulval epidermoid carcinoma cell line A-431; experiment: in vivo assay, inhibition of growth of A-431 xenografts in athymic nude mice (test (c)); set-up: species or system human xenografts in athymic nude mice (strain ONU:Alpk); conditions: daily dose of 50 mg/kg; usually oral; relative to untreated controls
# Description: (c) An in-vivo assay in a group of athymic nude mice (strain ONU:Alpk) which determines the ability of a test compound (usually administered orally as a ball-milled suspension in 0.5% polysorbate) to inhibit the growth of xenografts of the human vulval epidermoid carcinoma cell line A-431. A-431 cells were maintained in culture in DMEM supplemented with 5% FCS and 2 mM glutamine. Freshly cultured cells were harvested by trypsinization and injected subcutaneously (10 million cells/0.1 ml/mouse) into both flanks of a number of donor nude mice. When sufficient tumour material was available (after approximately 9 to 14 days), fragments of tumour tissue were transplanted in the flanks of recipient nude mice (test day 0). Generally, on the seventh day after transplantation (test day 7) groups of 7 to 10 mice with similar-sized tumours were selected and dosing of the test compound was commenced. Once daily dosing of test compound was continued for a total of 13 days (test days 7 to 19 inclusive). In some studies the dosing of the test compound was continued beyond test day 19, for example to test day 26. In each case, on the following test day the animals were killed and the final tumour volume was calculated from measurements of the length and width of the tumours. Results were calculated as a percentage inhibition of tumour volume relative to untreated controls.
# T1 sequence (P00533 25-1210): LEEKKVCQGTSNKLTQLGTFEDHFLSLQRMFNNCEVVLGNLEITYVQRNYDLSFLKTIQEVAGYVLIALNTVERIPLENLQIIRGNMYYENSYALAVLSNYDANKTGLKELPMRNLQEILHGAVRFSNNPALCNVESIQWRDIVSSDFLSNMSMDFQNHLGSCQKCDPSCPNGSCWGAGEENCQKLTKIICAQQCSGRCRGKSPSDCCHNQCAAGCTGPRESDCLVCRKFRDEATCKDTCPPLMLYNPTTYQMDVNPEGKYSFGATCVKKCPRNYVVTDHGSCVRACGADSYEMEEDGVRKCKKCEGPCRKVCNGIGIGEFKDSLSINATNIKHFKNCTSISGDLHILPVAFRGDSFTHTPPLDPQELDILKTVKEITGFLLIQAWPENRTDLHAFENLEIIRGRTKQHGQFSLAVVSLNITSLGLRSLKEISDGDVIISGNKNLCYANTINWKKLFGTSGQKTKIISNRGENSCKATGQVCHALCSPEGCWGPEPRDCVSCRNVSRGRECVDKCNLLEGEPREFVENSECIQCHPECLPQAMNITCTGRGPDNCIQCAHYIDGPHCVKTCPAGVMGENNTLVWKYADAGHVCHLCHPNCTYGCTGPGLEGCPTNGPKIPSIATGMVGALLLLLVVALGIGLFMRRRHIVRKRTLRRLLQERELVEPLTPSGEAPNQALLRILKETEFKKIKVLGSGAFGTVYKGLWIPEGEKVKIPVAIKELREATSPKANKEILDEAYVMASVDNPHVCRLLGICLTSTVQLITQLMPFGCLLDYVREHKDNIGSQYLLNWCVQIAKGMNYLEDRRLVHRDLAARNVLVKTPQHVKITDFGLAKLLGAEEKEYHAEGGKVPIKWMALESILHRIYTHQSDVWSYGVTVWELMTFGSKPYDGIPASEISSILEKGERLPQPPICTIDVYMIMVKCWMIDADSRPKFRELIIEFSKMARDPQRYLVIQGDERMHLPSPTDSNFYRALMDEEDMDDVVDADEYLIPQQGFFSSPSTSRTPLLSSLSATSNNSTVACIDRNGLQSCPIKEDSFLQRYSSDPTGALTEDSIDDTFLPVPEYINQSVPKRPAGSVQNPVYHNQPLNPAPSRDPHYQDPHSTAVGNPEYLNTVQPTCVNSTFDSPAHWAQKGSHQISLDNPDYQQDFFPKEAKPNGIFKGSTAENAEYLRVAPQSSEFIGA
SMILES,growth of transplanted human mammary carcinoma [1],growth of another carcinoma [2],IC50 [3],IC50 [4],"inhibition of tumour volume, test (c) [5]"
O=CN/C=C/c1cc(O)ccc1O [erbstatin],specifically attenuates the growth,without effect on the growth,,,
"Fc1ccc(Nc2ncnc3ccc(NCCCN4CCCC4)cc23)cc1Cl [Example 1, 4-(3'-chloro-4'-fluoroanilino)-6-[3-(pyrrolidin-1-yl)propylamino]quinazoline]",,,~0.076 µM,~0.06 µM,greater than 50%
